SMILES strings stand for the structures. In brackets after ≈: the same amount, converted by molar mass.

One series relates to most cancer types. The experiment in a line: MTT and SRB growth inhibition assays, many cancer types. The format is cell-based. Here is the method:
(§1) The anti-cancer activities of COMPOUND I were evaluated using the microtetrazoline (MTT) and sulforhodamine B (SRB) assays.

The next series concerns H-22 liver cancer cells. Description: MTT and SRB growth inhibition assays. Type of series: cell-based. Here is the method:
as §1

For another series, the system named is leukemia cells. The experiment in a line: MTT and SRB growth inhibition assays. Type of series: cell-based. Here is the method: as §1
For series [1], the system named is Lewis lung carcinoma cells. The experiment in a line: MTT and SRB growth inhibition assays. The format is cell-based, murine. Particulars: Mus musculus. How it is done: as §1
Series [2] deals with Du145 prostate cancer cells. The experiment in a line: Pulse-exposure clonal growth study. The format is cell-based. The text has this: (§2) Pulse-exposure studies, using methods as described in Kubota et al., Cancer Res. 1998; 58: 3370-3375 and Campbell et al., J. Mol. Endocrinol.
Series [3] relates to LNCap prostate cancer cells. The experiment in a line: Pulse-exposure clonal growth study. Type of series: cell-based.
From the text: as §2

In series [4] the test system is PC-3 prostate cancer cells. The experiment in a line: Pulse-exposure clonal growth study. The format is cell-based. Particulars: PC-3, pulse-exposure.
From the text: as §2

The subject of a further series is Lewis lung carcinomas. Description: Subcutaneous Lewis lung carcinoma growth in mice. The format is in vivo. The note with it: for Tumor vol.: daily intralesional injections 50 mg/kg. Here is the method: (§3) To determine if Compound I could inhibit primary tumor growth, syngeneic mice (C57B 16/J) bearing subcutaneous Lewis lung carcinomas and H-22 liver cancer were treated with Compound I with daily intralesional injections of (50 mg/kg) 1 mg of Compound I per 20 g mouse body weight.
Inhibition of primary tumor growth was first observed at dose of 20 mg/kg/day. Increased doses of Compound I correlated with increased efficacy of tumor inhibition. Inhibition of metastatic growth occurred at doses of approximately 20 mg/kg/day. […] In contrast, tumor in animals treated with saline grew rapidly in size to >6.000 mm^3, leading to the demise of all animals on day 17 after tumor implantation.

In the next series the test system is H-22 liver cancer. The experiment in a line: Subcutaneous H-22 liver cancer growth in mice. Type of series: in vivo. Particulars: 50 mg/kg daily intralesional, 14 days treatment period. Here is the method:
as §3

For a further series, the system named is human cancer cells. Description: Human cancer cells transplanted to nude mice. Type of series: in vivo. An excerpt: The in vivo anti-cancer activities of COMPOUND I were further evaluated using various other human cancer cells transplanted to nude mice.
The test system of another series is malignant cells. The experiment in a line: Clonal proliferation, cell cycle and apoptosis of malignant cells in vitro. Type of series: cell-based.
From the text: as §2

The IC50 is the concentration at which inhibition is half-maximal. The low end stands for inhibition by little substance, the high end for a need for much substance. For `c1cnc2ccc(Nc3nc(NC4CC4)c4nc[nH]c4n3)cc2c1` [Compound I], the “growth in vitro of many types of cancers” value with most cancer types (MTT and SRB assays) is on record as “significantly inhibited growth”. In addition, the IC50 in the series on most cancer types (most cancer types) was 0.5 to 3 µM; with H-22 liver cancer cells, 2.24 mg/L (≈ 7.06 µM); in the series on leukemia cells it was 2.5 mg/L (≈ 7.88 µM); in series [1], 2.81 mg/L (≈ 8.85 µM). Moreover, the “50% inhibition (ED50) of clonal growth” value in [2], in series [3] and in series [4] was “approximately 18 μg/ml” in each case. Further, the Tumor vol. with Lewis lung carcinomas (day 2) was 200 mm^3; in the series on Lewis lung carcinomas (day 4), 300 mm^3; with Lewis lung carcinomas (day 6), 500 mm^3; with Lewis lung carcinomas (day 8), 700 mm^3; with Lewis lung carcinomas (day 10) it was 900 mm^3; with Lewis lung carcinomas (day 12) it was 1200 mm^3. Besides, the Tumor vol. in the series with Lewis lung carcinomas (day 14) is given as 1500 mm^3; in the series on Lewis lung carcinomas (day 16), 1800 mm^3; with Lewis lung carcinomas (day 17), 2200 mm^3. In addition, the toxicity entry in the series with Lewis lung carcinomas (treated tumor-bearing mice) is “no detectable toxicity”. The “dose at which inhibition of metastatic growth occurred” value in the series with Lewis lung carcinomas (tumor-bearing mice) is “approximately 20 mg/kg/day”. The “dose at which inhibition of primary tumor growth was first observed” value in the series on Lewis lung carcinomas (tumor-bearing mice) came out at 20 mg/kg/day. The “growth of H-22 liver cancer in mice” value in the series with H-22 liver cancer is listed as “primary tumor growth was inhibited”. In the series on human cancer cells, the “in vivo growth of human cancers” value is recorded as “inhibits in vivo growth of many types of human cancers”. The “clonal proliferation of a variety of malignant cells in vitro” value in the series on malignant cells (prostate and breast cancers, neuroepithelioma, melanoma, leukemia) is reported as “inhibit the clonal proliferation”. The “cell cycle arrest and apoptosis” value in the series on malignant cells (some of these cells) was “induces cell cycle arrest and apoptosis”.

The record behind these values is patent US7399754B2, “N2-quinoline or isoquinoline substituted purine derivatives” (priority 2005, dated 2008).
